Source: paper PMC10791668, “Development of chia gum/alginate-polymer support for horseradish peroxidase immobilization and its application in phenolic removal” (Scientific Reports, 2024)

System: T1, Horseradish peroxidase (HRP); soluble-HRP
T1 construct: gene PRXC1A; class III plant peroxidase
Experiment: peroxidase assay, absorbance at […] nm, Lineweaver-Burk plot
Type: biochemical, Armoracia rusticana
Details: free soluble enzyme; co-substrate H2O2 (8 mM in the standard assay); 20 mM sodium acetate pH 5.5; temperature not stated

Structure (SMILES): COc1ccccc1O [guaiacol]
- Km: 35.7 mM
